# Data taken from article PMC7472518, “Ultrasensitive Detection of Enzymatic Activity Using Single Molecule Arrays” (Journal of the American Chemical Society, 2020).
# Where a name gives a salt, the structure may show the parent alone.
# How the values were obtained:
# Src = target: T1, Src (Homo sapiens, UniProt P12931); test: eSimoa ATP titration for Km, Src; format: biochemical; conditions: calculated from the EC50 of the ATP response curve
# T1 construct: purchased Millipore (Burlington, MA) 14-326
# Excerpt: (§1) We first determined the Km values for Src and Abl. Different concentrations of ATP were used in the phosphorylation reaction, while the concentrations of peptide-modified beads and enzymes were kept constant.
# Abl = target: T2, Abl (Homo sapiens, UniProt P00519); test: eSimoa ATP titration for Km, Abl; format: biochemical; conditions: calculated from the EC50 of the ATP response curve
# T2 construct: purchased Millipore (Burlington, MA) 14-529
# Excerpt: as §1
# Bcr-Abl = conditions: read-out: IC50 (reported); cited from earlier work
# T2 sequence (P00519 whole entry): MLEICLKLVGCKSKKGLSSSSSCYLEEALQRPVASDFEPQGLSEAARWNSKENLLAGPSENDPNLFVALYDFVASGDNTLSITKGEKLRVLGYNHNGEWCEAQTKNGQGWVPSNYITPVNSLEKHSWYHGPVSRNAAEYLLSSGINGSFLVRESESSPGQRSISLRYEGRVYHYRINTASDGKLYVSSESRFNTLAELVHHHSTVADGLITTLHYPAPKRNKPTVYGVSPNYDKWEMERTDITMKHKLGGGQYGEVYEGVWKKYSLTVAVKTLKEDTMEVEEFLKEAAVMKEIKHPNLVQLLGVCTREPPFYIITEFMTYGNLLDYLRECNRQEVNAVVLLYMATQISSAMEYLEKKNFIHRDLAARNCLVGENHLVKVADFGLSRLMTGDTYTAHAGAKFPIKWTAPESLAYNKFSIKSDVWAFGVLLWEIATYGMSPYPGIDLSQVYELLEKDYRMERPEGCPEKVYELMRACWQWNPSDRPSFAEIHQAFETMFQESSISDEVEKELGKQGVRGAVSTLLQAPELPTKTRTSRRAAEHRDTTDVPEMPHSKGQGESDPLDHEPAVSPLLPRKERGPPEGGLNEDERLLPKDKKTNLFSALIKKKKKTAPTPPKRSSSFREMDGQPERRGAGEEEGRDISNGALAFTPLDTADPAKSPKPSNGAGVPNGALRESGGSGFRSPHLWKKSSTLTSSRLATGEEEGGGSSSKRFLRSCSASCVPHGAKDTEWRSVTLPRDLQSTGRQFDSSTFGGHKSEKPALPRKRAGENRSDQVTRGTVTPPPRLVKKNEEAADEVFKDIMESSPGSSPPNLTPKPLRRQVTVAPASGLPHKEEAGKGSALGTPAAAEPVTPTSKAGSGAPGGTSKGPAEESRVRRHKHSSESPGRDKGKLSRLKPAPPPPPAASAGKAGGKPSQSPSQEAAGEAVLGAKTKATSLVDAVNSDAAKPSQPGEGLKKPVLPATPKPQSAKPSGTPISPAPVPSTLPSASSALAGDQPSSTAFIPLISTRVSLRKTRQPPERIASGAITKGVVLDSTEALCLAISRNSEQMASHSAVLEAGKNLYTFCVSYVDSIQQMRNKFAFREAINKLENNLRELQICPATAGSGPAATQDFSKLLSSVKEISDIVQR
Structure (SMILES),Km (Src) [µM],Km (Abl) [µM],IC50 (Bcr-Abl) [nM]
"Nc1ncnc2c1ncn2[C@@H]1O[C@H](COP(=O)(O)OP(=O)(O)OP(=O)(O)O)[C@@H](O)[C@H]1O [ATP, adenosine 5′-triphosphate (ATP) disodium salt hydrate]",29.2,3.69,
